The text below walks through data of ChEMBL document CHEMBL4346659, “Design, synthesis and evaluation of novel 7H-pyrrolo[2,3-d]pyrimidin-4-amine derivatives as potent, selective and reversible Bruton's tyrosine kinase (BTK) inhibitors for the treatment of rheumatoid arthritis” (Eur J Med Chem, 2019).

For one experiment, the system named is Daudi. Nature of the experiment: Antiproliferative activity against human Daudi cells. In kind it is functional, cell-based. Further details: fold change (FC): reference not given here. Particulars: for IC50: Homo sapiens, Daudi.
The next experiment deals with Ramos. The experiment is described as follows: Antiproliferative activity against human Ramos cells. More on the design: fold change (FC): reference not given here. The conditions noted are these: for IC50: Homo sapiens, Ramos. In kind it is functional, cell-based.
The target in experiment [1] is T1, Tyrosine-protein kinase BTK (Homo sapiens, UniProt Q06187). The experiment is described as follows: Inhibition of BTK (unknown origin) at 1 uM in the presence of ATP by caliper mobility shift assay relative to control.
T1 sequence (Q06187 whole entry): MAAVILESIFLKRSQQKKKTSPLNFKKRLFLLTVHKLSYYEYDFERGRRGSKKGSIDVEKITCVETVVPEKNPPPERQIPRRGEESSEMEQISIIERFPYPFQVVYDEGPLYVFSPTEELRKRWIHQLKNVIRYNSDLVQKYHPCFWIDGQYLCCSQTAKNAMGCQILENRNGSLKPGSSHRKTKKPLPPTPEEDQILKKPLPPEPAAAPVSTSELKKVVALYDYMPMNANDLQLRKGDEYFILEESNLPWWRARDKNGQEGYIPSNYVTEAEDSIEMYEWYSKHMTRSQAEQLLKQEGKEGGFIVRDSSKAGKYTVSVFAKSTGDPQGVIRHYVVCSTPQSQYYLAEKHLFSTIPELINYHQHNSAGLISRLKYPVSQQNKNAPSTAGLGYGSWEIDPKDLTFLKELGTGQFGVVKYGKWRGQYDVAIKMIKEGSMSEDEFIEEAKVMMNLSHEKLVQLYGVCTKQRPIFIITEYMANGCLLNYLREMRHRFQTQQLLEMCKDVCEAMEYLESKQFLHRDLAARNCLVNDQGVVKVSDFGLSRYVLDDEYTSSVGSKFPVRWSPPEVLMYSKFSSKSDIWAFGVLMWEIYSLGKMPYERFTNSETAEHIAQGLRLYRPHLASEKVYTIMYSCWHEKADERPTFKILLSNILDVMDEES
A further experiment has as its system JeKo-1. The experiment is described as follows: Antiproliferative activity against human JeKo1 cells. Format: functional, cell-based. More on the design: fold change (FC): reference not given here. Particulars: for IC50: Homo sapiens, JeKo-1.
In experiment [2] the target is T1, Tyrosine-protein kinase BTK. The experiment is described as follows: Inhibition of BTK (unknown origin) at 0.1 uM in the presence of ATP by caliper mobility shift assay relative to control.
The target is the same in experiment [3]. The experiment is described as follows: Inhibition of BTK (unknown origin) in the presence of ATP by caliper mobility shift assay.

The term IC50 denotes the midpoint of a concentration-inhibition curve. By inhibition is commonly meant the drop in the measured response relative to a control, in per cent. `Nc1ncnc2c1c(-c1ccc3c(c1)OCO3)cn2[C@H]1CCN(C[C@@H]2CO2)C1`: the IC50 in the experiment with Daudi was 2.39 µM; in the experiment with Ramos, 12.5 µM; in the experiment on JeKo-1, 3.41 µM; in experiment [3] it was 0.0366 µM. Moreover, the figures for the inhibition in experiment [1] and in experiment [2] were 93.5% and 87.6%, respectively.
Turning to `Nc1ncnc2c1c(-c1ccc3c(c1)OCO3)cn2[C@H]1CCN(CC2CO2)C1` (some centres undefined), the results for the inhibition in experiment [1] and in experiment [2] were 96.6% and 70.1%, respectively. Moreover, in experiment [3], the IC50 was 0.0455 µM.
For the compound `Nc1ncnc2c1c(-c1ccc3c(c1)OCO3)cn2[C@@H]1CCN(C[C@H]2CO2)C1`, the half-maximal inhibitory concentration (IC50) is 53.8 µM in the experiment with Daudi, greater than 50 µM with Ramos, 32.5 µM in the experiment with JeKo-1 and greater than 0.5 µM in experiment [3]. The inhibition in experiment [1] is 42%; in experiment [2], 15.2%.
Regarding `Nc1ncnc2c1c(-c1ccc3c(c1)OCO3)cn2C[C@@H]1CCN(C[C@@H]2CO2)C1`, the IC50 in the experiment with Daudi was 15.9 µM; in the experiment on Ramos it was 13.3 µM; in the experiment on JeKo-1, 10.3 µM; in experiment [3] it was 0.123 µM. For the same compound, the figures for the inhibition in experiment [1] and in experiment [2] were 86.3% and 48.3%, respectively.
Consider `CC1(CN2CC[C@H](n3cc(-c4ccc5c(c4)OCO5)c4c(N)ncnc43)C2)COC1`, for which the IC50 is 44.7 µM in the experiment on Daudi, 20.4 µM in the experiment with Ramos, 19 µM in the experiment on JeKo-1 and greater than 0.5 µM in experiment [3]. The results for the inhibition in experiment [1] and in experiment [2] were 36.1% and 13.9%, respectively.
Consider `Nc1ncnc2c1c(-c1ccc3c(c1)OCO3)cn2[C@H]1CCN(C[C@H]2CO2)C1`, for which the half-inhibitory concentration (IC50) in the experiment on Daudi stood at 2.44 µM; in the experiment on Ramos it was 5 µM; with JeKo-1 it was 2.28 µM; in experiment [3], 0.0419 µM. Besides, the inhibition in experiment [1] worked out at 86.5%; in experiment [2], 62.2%.
As for `Nc1ncnc2c1c(-c1ccc(Oc3ccccc3)cc1)cn2[C@H]1CCN(C[C@H]2CO2)C1`, the “fold change (FC)” value in the experiment on Daudi, with Ramos and in the experiment with JeKo-1 was 3 - 10 throughout. The IC50 was 15.7 µM in the experiment with Daudi, greater than 50 µM with Ramos, 5.08 µM with JeKo-1 and 0.0894 µM in experiment [3]. Moreover, the inhibition in experiment [1] turned out to be 90.1%; in experiment [2], 52%.
In the case of `Nc1ncnc2c1c(-c1ccc3c(c1)OCO3)cn2CC1CCN(C[C@@H]2CO2)CC1`, the results for the IC50 in the experiment on Daudi, in the experiment on Ramos and in the experiment with JeKo-1 were 12.5 µM, 10.9 µM and 15.3 µM, respectively. The results for the inhibition in experiment [1] and in experiment [2] were 59.9% and 14.2%, respectively.
For `Nc1ncnc2c1c(-c1ccc3c(c1)OCO3)cn2C[C@H]1CCN(C[C@@H]2CO2)C1` the same measures were 15 µM, 27 µM, 7.25 µM, 63.7% and 23.9%.
The matching figures for `Nc1ncnc2c1c(-c1cnc3[nH]ccc3c1)cn2[C@H]1CCN(C[C@@H]2CO2)C1`: 2.99 µM, 4.65 µM, 9.44 µM, 46.6% and 12.8%.
For `Nc1ncnc2c1c(-c1ccc3c(c1)OCO3)cn2[C@H]1CCN(C(=O)C2CC2)C1`, the values for the inhibition in experiment [1] and in experiment [2] were 34% and -3.67%, respectively. In addition, the IC50 in experiment [3] was 0.045 µM.
In the case of `Nc1ncnc2c1c(-c1ccc3c(c1)OCO3)cn2C[C@@H]1CCCN1C[C@@H]1CO1`, the IC50 with Daudi was 19 µM; in the experiment with Ramos, 29 µM; with JeKo-1, 21.6 µM. Also, the inhibition is 47.6% in experiment [1] and 13.5% in experiment [2].
For `Nc1ncnc2c1c(-c1ccc3c(c1)OCO3)cn2[C@H]1CCN(Cc2cc(F)cc(F)c2)C1` the same measures were 11.6 µM, 6.6 µM, 1.69 µM, 30.2% and 6.07%.
For `Nc1ncnc2c1c(-c1ccc3c(c1)OCO3)cn2[C@H]1CCN(C2COC2)C1`, the half-inhibitory concentration (IC50) was greater than 50 µM in the experiment on Daudi, greater than 50 µM in the experiment with Ramos, greater than 50 µM with JeKo-1 and greater than 0.5 µM in experiment [3]. The inhibition in experiment [1] was 52%; in experiment [2], 19.7%.
Take `C[C@@H]1C[C@H](n2cc(-c3ccc4c(c3)OCO4)c3c(N)ncnc32)CN1C[C@@H]1CO1`: the IC50 amounted to 10.9 µM in the experiment with Daudi, 7.97 µM with Ramos and 4.61 µM with JeKo-1. The inhibition in experiment [1] was determined as 47.1%; in experiment [2], 12.7%.
Regarding `Nc1ncnc2c1c(-c1ccc(Oc3ccccc3)cc1)cn2[C@H]1CCN(C[C@@H]2CO2)C1`, the half-inhibitory concentration (IC50) with Daudi worked out at 5.48 µM; in the experiment with Ramos, 6.71 µM; with JeKo-1, 1.48 µM; in experiment [3], 0.0311 µM. Also, the inhibition in experiment [1] turned out to be 98.1%; in experiment [2] it was 79.1%.
For the compound `Nc1ncnc2c1c(-c1ccc3c(c1)OCO3)cn2C1CCN(C[C@@H]2CO2)CC1`, the IC50 was 21.3 µM with Daudi, 32.8 µM with Ramos and 12.9 µM in the experiment with JeKo-1. Moreover, the inhibition in experiment [1] was determined as 89.4%; in experiment [2], 60.2%.
Take `CC(C)(C)c1ccc(C(=O)Nc2cccc(-c3cn([C@H]4CCN(C[C@@H]5CO5)C4)c4ncnc(N)c34)c2)cc1`: the IC50 turned out to be 5.97 µM in the experiment with Daudi, 4.82 µM with Ramos and 2.54 µM in the experiment with JeKo-1. The inhibition stood at 22.2% in experiment [1] and 2.29% in experiment [2].
`Nc1ncnc2c1c(-c1ccc3c(c1)OCO3)cn2CC1CCCO1` (centres undefined): the IC50 in the experiment on Daudi is 20.9 µM; in the experiment on Ramos, 24.2 µM; with JeKo-1, 17.1 µM. Besides, the inhibition was 21.8% in experiment [1] and -6.11% in experiment [2].
`Nc1ncnc2c1c(-c1ccc3c(c1)OCO3)cn2C[C@H]1CCCN1C[C@@H]1CO1`: the IC50 is 8.97 µM in the experiment on Daudi, 18 µM with Ramos, 4.83 µM with JeKo-1 and 0.0089 µM in experiment [3]. Also, the inhibition was determined as 94.5% in experiment [1] and 81.6% in experiment [2].
For `CC(C)(C)c1ccc(CN2CC[C@H](n3cc(-c4ccc5c(c4)OCO5)c4c(N)ncnc43)C2)cc1`, the IC50 was 13.2 µM in the experiment on Daudi, 4.41 µM with Ramos and 2.07 µM with JeKo-1. The inhibition in experiment [1] is 3%; in experiment [2] it was 0.01%.
The matching figures for `CC(C)(C)c1ccc(COc2ccc(-c3cn([C@H]4CCN(C[C@@H]5CO5)C4)c4ncnc(N)c34)cc2)cc1`: 6.97 µM, 4.21 µM, 5.97 µM, 7.63% and 3.73%.
Take `NC(=O)CN1CC[C@H](n2cc(-c3ccc4c(c3)OCO4)c3c(N)ncnc32)C1`: the IC50 in the experiment on Daudi is 3.45 µM; in the experiment on Ramos, 13.3 µM; in the experiment on JeKo-1 it was 4.98 µM; in experiment [3] it was greater than 0.5 µM. The inhibition in experiment [1] was determined as 48.6%; in experiment [2] it was 12.6%.
Take `Nc1ncnc2c1c(-c1ccc3c(c1)OCO3)cn2[C@H]1CCN(CC2CC2)C1`: the IC50 was 24.6 µM in the experiment with Daudi, 16.9 µM in the experiment on Ramos and 1.45 µM in the experiment with JeKo-1. Moreover, the inhibition in experiment [1] came to 15.2%; in experiment [2] it was 0.04%.
For `Nc1ncnc2c1c(-c1ccc3c(c1)OCO3)cn2C1=CCN(C[C@@H]2CO2)CC1` the same measures were 5.02 µM, 2.11 µM, 12.8 µM, 42.6% and 1.81%.
